From patent US10047041B2, “Amino-phenyl-sulfonyl-acetate derivatives and use thereof” (CJ Healthcare Corporation, priority 2014, dated 2018)

Test system: ICR mice
Assay: Oral glucose tolerance test (OGTT) in ICR mice
Assay type: in vivo
Details: normal fasted ICR mice; oral 50, 20, 5 and 1 mg/kg in 0.5% methylcellulose; glucose 2 g/kg; student's t-test p<0.05
Description: In order to evaluate the ability to control blood glucose in the body for the compound according to the present invention, an oral glucose tolerance test was conducted using ICR mice. The day before the test, normal ICR mice were separated into four per group, and were fasted for at least 16 hours. The body weight of each mouse was measured and recorded in the morning on the day of the test; The compound was prepared in a concentration of 5 mg/mL in 0.5% methylcellulose such that it could be administered at a dose of 50 mg/kg, and was then further diluted to be in concentrations of […] and administered at the same volume such that it can be administered at doses of 20 mg/kg, 5 mg/kg, and 1 mg/kg. Glucose was dissolved in drinking water and prepared in a concentration of 200 mg/mL such that it could be administered at a dose of 2 g/kg. Before administering the compounds, a small amount of blood of the mice was drawn from the caudal vein, and blood glucose was measured using ACCU-CHEK Active (Art. No. 2248891001), a blood glucose meter, and recorded. A solvent (0.5% MC) as a vehicle and the compounds prepared above were administered to all mice at a dose of 10 mL per 1 kg of body weight using a sonde. Glucose was further administered, and the blood glucose was measured in each mouse after 0.5 hours, 1 hour, and 2 hours. […]

Cc1ccccc1-c1cccc(CNc2ccc(S(=O)(=O)CC(=O)O)cc2)c1 [Example 1, 2-(4-((2′-methyl-biphenyl-3-yl)methylamino)phenylsulfonyl)acetic acid]
effect of lowering blood glucose (glucose AUC0-2 hr after glucose administration): significant effect of lowering blood glucose
